Entries after “also recorded” stand apart in the source; their conditions may differ.
Columns and labels:
mouse model of TEN = test: Smac mimetic TEN mouse model
DRESS = conditions: earlier report; cited from earlier work
primary keratinocytes = test: Live-cell imaging co-culture assay of patient-derived keratinocytes with matched PBMCs
Excerpt: Concurrently, patient-matched PBMCs were isolated and activated using CD3/28. After five days, the keratinocytes were fluorescently labeled and co-cultured with activated or resting PBMCs. A fluorescent DNA-binding dye was introduced to identify cells with compromised membrane integrity, in order to visualize, track and quantify the cytotoxic action of activated PBMCs towards keratinocytes using live-cell imaging.
PBMCs were isolated using Ficol according to standard protocol. Cells were frozen in liquid nitrogen until further usage.
Patient PBMCs (200'000 / well / 200 µl) were stimulated in U-shape 96-well plates in the presence or absence of CD3/28 (Gibco Dynabeads, #11161D) at a ratio of 1:1, in X-VIVO 15 (Lonza, #881026) for 5 days at 37 °C / 5% CO2. On day 4 of PBMC stimulation, hair-follicle derived keratinocytes from the same patient were plated on Collagen-I coated 96-well plates at a density of 5'000 - 10000 / well (depending on the proliferation rate, patient specific). On day 5 of PBMC stimulation, keratinocytes were fluorescently labeled (Celltracker Red; Invitrogen #C34552) according to the manufacturer's recommendation. Activated or non-activated ("resting") PBMCs were then added to the keratinocytes at a ratio of 1:1, after magnetic removal of CD3/28 beads where necessary. Tofacitinib (CST, #14703) or control (DMSO) was added in the indicated concentration as well as Celltox Green (Promega, G8731, 1:8000 final dilution) to reach a final volume of 200 µl per well. Every 2 hours images were acquired using a live cell analysis system (Incucyte Sx3, Sartorius) for 72 hours at 37 °C / 5% CO2. Quantification of dead keratinocytes (Celltox Green+ / Celltracker Red+) was performed using the proprietary analysis software (Incucyte, Sartorius).

[1] = cited from earlier work

## C[C@@H]1CCN(C(=O)CC#N)C[C@@H]1N(C)c1ncnc2[nH]ccc12 [Tofacitinib]
Mouse model of TEN; oral administration
  clinical and histological disease severity: ameliorated clinical and histological disease severity
Mouse model of TEN; oral gavage twice daily, Tofacitinib 30 mg/kg or Baricitinib 10 mg/kg, day 1 and 3 after s.c. smac mimetic injection
  macroscopic disease severity (clinical assessment score: Nikolsky sign, edema, rubor): markedly reduced macroscopic disease severity
DRESS
  therapeutic intervention in DRESS: successful
Primary keratinocytes; Tofacitinib in combination with resting (non-activated) PBMCs
  cell death: no indications of increased cell death
Primary keratinocytes; co-culture of primary keratinocytes with CD3/28 activated PBMCs from the same TEN patient, ratio 1:1, Tofacitinib 50 or 5 (nmol/nM), imaging every 2h for 72 hours, Celltox Green positive keratinocytes
  keratinocyte cytotoxicity: reduced keratinocyte-directed cytotoxicity; also recorded: able to dampen the keratinocyte mediated cytotoxicity; also recorded: ameliorates T-cell mediated keratinocyte cytotoxicity; also recorded: dose-dependent inhibition of keratinocyte cytotoxicity
Primary keratinocytes; keratinocytes exposed to Tofacitinib alone
  keratinocyte cell death: did not induce keratinocyte cell death
[1]
  peak plasma concentrations achieved (time after administration): 30 to 60 min

Reference: EP4506005A1, “JAK-INHIBITOR FOR THE TREATMENT OF TEN, SJS AND SJS/TEN OVERLAP” (Max-Planck-Gesellschaft zur Förderung der Wissenschaften …, priority 2023, dated 2025)
